Measured values as given in patent publication US12577247B2 (BUGWORKS RESEARCH, INC., priority 2021, dated 2026).

Columns and labels:
A2B receptor [1] = target: T1, A2B receptor (Homo sapiens, UniProt P29275); assay: A2bR antagonism IC50, cAMP TR-FRET (Lance Ultra) in HEK-293 cells, NECA as agonist; format: cell-based; design: host or cells: HEK-293; conditions: HEK-293 cells expressing A2B receptor; agonist NECA 30 nM (EC90); inhibition of cAMP
T1 sequence (P29275 1-332): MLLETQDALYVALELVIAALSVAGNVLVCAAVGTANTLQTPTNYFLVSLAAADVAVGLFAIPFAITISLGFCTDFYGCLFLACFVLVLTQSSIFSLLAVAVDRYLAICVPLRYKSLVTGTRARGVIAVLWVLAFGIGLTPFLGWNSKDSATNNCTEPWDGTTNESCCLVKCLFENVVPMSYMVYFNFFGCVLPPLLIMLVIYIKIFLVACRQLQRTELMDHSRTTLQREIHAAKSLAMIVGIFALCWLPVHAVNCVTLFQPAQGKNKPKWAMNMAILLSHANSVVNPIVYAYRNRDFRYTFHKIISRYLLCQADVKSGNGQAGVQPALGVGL

A2B receptor [2] = target: T1, A2B receptor; assay: A2bR antagonism IC50, cAMP TR-FRET in HEK-293 cells, high concentration of adenosine (30 μM); conditions: A2BR IC50 (nM) (@30 μM Adenosine), HEK-293 cells expressing A2B receptor; agonist adenosine 30 μM; 2% HSA; inhibition of cAMP;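 note: compounds preincubated 10 min with cells, then adenosine stimulation 30 min at room temperature in buffer with Rolipram 100 µM and EHNA 30 µM, TR-FRET read after 1 h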
A2A receptor [3] = target: T2, A2A receptor (Homo sapiens, UniProt P29274); assay: A2aR antagonism IC50, cAMP TR-FRET in HEK-293 cells, high concentration of adenosine (30 μM); format: cell-based; conditions: HEK-293 cells expressing A2A receptor; agonist adenosine 30 μM; 2% HSA; inhibition of cAMP; read-out: A2AR IC50 (nM) (@30 μM Adenosine);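 note: compounds added 10 min before adenosine, then 30 min stimulation at room temperature in buffer with 100 µM rolipram and 30 µM EHNA, signal read 1 h after detection reagents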
T2 construct: host or cells: HEK-293
T2 sequence (P29274 whole entry): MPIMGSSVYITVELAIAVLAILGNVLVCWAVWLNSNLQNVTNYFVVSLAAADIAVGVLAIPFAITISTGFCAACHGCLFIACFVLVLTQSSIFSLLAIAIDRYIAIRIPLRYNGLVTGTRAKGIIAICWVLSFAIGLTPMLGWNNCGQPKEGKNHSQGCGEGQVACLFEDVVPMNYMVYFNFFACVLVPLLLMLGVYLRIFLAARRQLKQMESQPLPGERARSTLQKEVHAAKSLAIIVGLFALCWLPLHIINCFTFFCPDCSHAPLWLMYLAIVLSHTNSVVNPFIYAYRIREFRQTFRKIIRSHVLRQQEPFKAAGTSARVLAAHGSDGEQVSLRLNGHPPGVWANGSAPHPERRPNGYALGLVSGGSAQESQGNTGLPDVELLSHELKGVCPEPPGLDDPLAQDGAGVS
Procedure: A Time-Resolved Fluorescence Energy Transfer (TR-FRET) assay was used to show the inhibition of this cAMP production in HEK cells upon treatment with compounds of the Formula I of the present disclosure.
HEK-293 cells expressing A2A receptor (#ES-011-C) or A2B receptor (#ES 013-C) were obtained from PerkinElmer. Cells were maintained in DMEM medium supplemented with 10% FBS and 200 μg/mL of G418 at 37° C. and 5% CO2. The cells were cultured in antibiotic free medium for a period of 16-20 hours prior to the assay. All subsequent steps of the assay are performed at room temperature (22-24° C.). […] About 1500 cells per well were pre-incubated for 10 minutes with the compounds of the present invention before adding the agonist Adenosine at a high concentration (30 μM) for a total stimulation time of 30 minutes. […] The assays were conducted in a stimulation buffer containing 1×DMEM, 5 mM HEPES, 2% Human serum albumin (HSA), 100 μM Rolipram and 30 μM erythro-9-(2-hydroxy-3-nonyl) adenine (EHNA). Serial dilutions of compounds were made in stimulation buffer to achieve a final concentration of high micromolar in a reaction volume of 10 μL. The total reaction volume was 10 μL (5 μL of cells, 2.5 μL of antagonist and 2.5 μL of agonist). […] The stimulation was ended, and the reaction completed by adding 5 μL of 4× Eu-cAMP tracer working solution and 5 μL of 4× ULight-anti-cAMP working solution. The TR FRET signal was measured after 1-hour incubation using a Tecan M1000 or a PerkinElmer Victor Nivo plate reader.

A2A receptor [4] = target: T2, A2A receptor; assay: A2aR antagonism IC50, cAMP TR-FRET (Lance Ultra) in HEK-293 cells, NECA as agonist; format: cell-based; conditions: A2AR IC50 (nM) (@5 nM NECA), HEK-293 cells expressing A2A receptor; agonist NECA 5 nM (EC90); inhibition of cAMP;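 note: compounds tested from 10 µM down to 0.08 nM in buffer with Rolipram at room temperature, TR-FRET cAMP signal read 1 h after adding Eu-cAMP tracer and ULight anti-cAMP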

IC50 (A2B receptor [1]) [nM] | IC50 (A2B receptor [2]) [nM] | IC50 (A2A receptor [3]) [nM] | IC50 (A2A receptor [4]) [nM] | Compound
102 | – | – | – | Cc1cccc(CC(C)Nc2nc3c(C)c(C)nn3c(N)c2C#N)n1 (single isomer, unassigned) [Example 15, 7-amino-2,3-dimethyl-5-{[1-(6-methylpyridin-2-yl)propan-2-yl]amino}pyrazolo[1,5-a]pyrimidine-6-carbonitrile]
2.2 | – | – | 2.5 | CCc1c(C)nn2c(N)c(C#N)c(NC(C)Cc3ccccn3)nc12 (single isomer, unassigned) [Example 22, 7-Amino-3-ethyl-2-methyl-5-((1-(pyridin-2-yl)propan-2-yl)amino) pyrazolo[1,5-a]pyrimidine-6-carbonitrile]
1130 | – | – | – | Cc1nn2c(N)c(C#N)c(NCc3cccc(C(C)(C)O)n3)nc2c1C [Example 9, 7-amino-5-({[6-(2-hydroxypropan-2-yl)pyridin-2-yl]methyl}amino)-2,3-dimethylpyrazolo[1,5-a] pyrimidine-6-carbonitrile]
4 | – | – | – | CCc1c(C)nn2c(N)c(C#N)c(NCCc3cccc(OC)n3)nc12 [Example 20, 7-Amino-3-ethyl-5-((2-(6-methoxypyridin-2-yl)ethyl)amino)-2-methylpyrazolo [1,5-a]pyrimidine-6-carbonitrile]
4.5 | – | – | – | CCc1c(C)nn2c(N)c(C#N)c(NCCc3ccn(C)n3)nc12 [Example 30]
– | – | – | 1.9 | Cc1nn2c(N)c(C#N)c(NCCc3cccc(CO)n3)nc2c1CC1CC1 [Example 46, 7-amino-3-(cyclopropylmethyl)-5-((2-(6-(hydroxymethyl)pyridin-2-yl)ethyl)amino)-2-methylpyrazolo[1,5-a]pyrimidine-6-carbonitrile]
– | – | – | 7.2 | Cc1c(C2CC2)nn2c(N)c(C#N)c(NCCc3cccc(C(C)(C)O)n3)nc12 [Example 47, 7-amino-2-cyclopropyl-5-((2-(6-(2-hydroxypropan-2-yl)pyridin-2-yl)ethyl)amino)-3-methylpyrazolo[1,5-a]pyrimidine-6-carbonitrile]
11 | 9070 | 284 | – | Cc1nn2c(N)c(C#N)c(NCCc3cccc(C(F)(F)CO)n3)nc2c1Cl [Example 64, 7-amino-3-chloro-5-((2-(6-(1,1-difluoro-2-hydroxyethyl)pyridin-2-yl)ethyl)amino)-2-methylpyrazolo[1,5-a]pyrimidine-6-carbonitrile]
12 | 3800 | 83 | – | CCc1cnn2c(N)c(C#N)c(NCCc3cc(C)n(C4(CO)CC4)n3)nc12 [Example 80, 7-amino-3-ethyl-5-((2-(1-(1-(hydroxymethyl)cyclopropyl)-5-methyl-1H-pyrazol-3-yl)ethyl)amino) pyrazolo[1,5-a]pyrimidine-6-carbonitrile]
– | > 15000 | 8260 | – | CCCc1c(C)nn2c(N)c(C#N)c(NCCc3cccc(C)n3)nc12 [Example 164, 7-amino-2-methyl-5-((2-(6-methylpyridin-2-yl)ethyl)amino)-3-propylpyrazolo[1,5-a]pyrimidine-6-carbonitrile]
– | 466 | 1420 | – | CCc1c(C)nn2c(N)c(C#N)c(NCCc3cccc(CO[C@@H]4CCOC4)n3)nc12 [Example 166, (R)-7-amino-3-ethyl-2-methyl-5-((2-(6-(((tetrahydrofuran-3-yl)oxy)methyl)pyridine-2-yl)ethyl)amino) pyrazolo[1,5-a]pyrimidine-6-carbonitrile]

More lines, now with the values behind:

Compound | IC50 (A2B receptor [1]) [nM] | IC50 (A2B receptor [2]) [nM] | IC50 (A2A receptor [3]) [nM] | IC50 (A2A receptor [4]) [nM]
CCc1c(C)nn2c(N)c(C#N)c(NC(C)Cc3cccc(C)n3)nc12 (racemic) [Example 24, 7-Amino-3-ethyl-2-methyl-5-((1-(6-methylpyridin-2-yl)propan-2-yl)amino) pyrazolo[1,5-a]pyrimidine-6-carbonitrile] | 2.5 | – | – | –
Cc1nn2c(N)c(C#N)c(NCCc3ccn(CC4CC(O)C4)n3)nc2c1Cl (racemic) [Example 82, (+−)-7-amino-3-chloro-5-((2-(1-((3-hydroxycyclobutyl)methyl)-1H-pyrazol-3-yl)ethyl)amino)-2-methylpyrazolo[1,5-a]pyrimidine-6-carbonitrile] | 7 | 2340 | 110 | –
Cc1cccc(CC(C)Nc2nc3c(C)c(C)nn3c(N)c2C#N)n1 (single isomer, unassigned) [Example 14, 7-amino-2,3-dimethyl-5-{[1-(6-methylpyridin-2-yl)propan-2-yl]amino}pyrazolo[1,5-a]pyrimidine-6-carbonitrile] | 7 | – | – | 1
CCc1c(C)nn2c(N)c(C#N)c(NC(C)Cc3ccccn3)nc12 (single isomer, unassigned) [Example 23, 7-Amino-3-ethyl-2-methyl-5-((1-(pyridin-2-yl)propan-2-yl)amino) pyrazolo[1,5-a]pyrimidine-6-carbonitrile] | 130 | – | – | 11
Cc1cccc(CCNc2nc3c(CC(C)C)c(C)nn3c(N)c2C#N)n1 [Example 27, 7-amino-3-(isopropylmethyl)-2-methyl-5-((2-(6-methylpyridin-2-yl)ethyl)amino) pyrazolo[1,5-a]pyrimidine-6-carbonitrile] | 654 | – | – | –
CCc1c(C(F)F)nn2c(N)c(C#N)c(NCCc3cccc(C4CC4CO)n3)nc12 (stereo not shown) [Example 59, 7-amino-2-(difluoromethyl)-3-ethyl-5-((2-(6-(2-(hydroxymethyl)cyclopropyl)pyridin-2-yl)ethyl)amino)pyrazolo[1,5-a]pyrimidine-6-carbonitrile] | 9 | – | 1080 | –
CCc1c(C)nn2c(N)c(C#N)c(NCCc3cccc(C4CC4CO)n3)nc12 (stereo not shown) [Example 60, 7-amino-3-ethyl-5-((2-(6-(2-(hydroxymethyl)cyclopropyl)284yridine-2-yl)ethyl)amino)-2-methylpyrazolo[1,5-a]pyrimidine-6-carbonitrile] | 0.94 | – | 211 | –
CCc1c(C)nn2c(N)c(C#N)c(NCCc3ccn(CC4(CO)CC4)n3)nc12 [Example 63, 7-amino-3-ethyl-5-((2-(1-((1-(hydroxymethyl)cyclopropyl)methyl)-1H-pyrazol-3-yl)ethyl)amino)-2-methylpyrazolo[1,5-a]pyrimidine-6-carbonitrile] | 7.3 | 2800 | 810 | –
Cc1nn2c(N)c(C#N)c(NCCc3ccn(C4CCC4CO)n3)nc2c1Cl (stereo not shown) [Example 67, 7-amino-3-chloro-5-((2-(1-(2-(hydroxymethyl)cyclobutyl)-1H-pyrazol-3-yl)ethyl)amino)-2-methylpyrazolo[1,5-a]pyrimidine-6-carbonitrile] | – | 1880 | 50 | 0.1
CCc1c(C)nn2c(N)c(C#N)c(NCCc3ccn(C(C)CO)n3)nc12 (stereo not shown) [Example 81, 7-amino-3-ethyl-5-((2-(1-(1-hydroxypropan-2-yl)-1H-pyrazol-3-yl)ethyl)amino)-2-methylpyrazolo[1,5-a]pyrimidine-6-carbonitrile] | 3.6 | 1050 | 63 | –
CCc1c(C)nn2c(N)c(C#N)c(NCCc3ccn(CC4CC(O)C4)n3)nc12 (stereo not shown) [Example 85, 7-amino-3-ethyl-5-((2-(1-((3-hydroxycyclobutyl)methyl)-1H-pyrazol-3-yl)ethyl)amino)-2-methylpyrazolo[1,5-a] pyrimidine-6-carbonitrile] | 3 | 1070 | 211 | –
